Experimental data: ChEMBL document CHEMBL1275599, “Comparison of in vitro activities of fluoroquinolone-like 2,4- and 1,3-diones” (Antimicrob Agents Chemother, 2010)
≈ marks a conversion by molar mass, not a printed value.

Legend:
[1] = Inhibition of DNA decatenation activity of Escherichia coli DNA topoisomerase 4
[2] = Inhibition of DNA decatenation activity of Staphylococcus aureus DNA topoisomerase 4
[3] = Inhibition of DNA supercoiling activity of Escherichia coli DNA gyrase
Staphylococcus aureus = assay: Selectivity index, ratio of IC50 for Staphylococcus aureus Topoisomerase 4 to IC50 for Staphylococcus aureus DNA gyrase
Escherichia coli [4] = assay: Selectivity index, ratio of IC50 for Escherichia coli Topoisomerase 4 to IC50 for Escherichia coli DNA gyrase
Escherichia coli [5] = assay: Ratio of CC3 for Escherichia coli DNA gyrase gyrA G81C mutant to CC3 for Escherichia coli wild-type DNA gyrase
Escherichia coli [6] = assay: Selectivity ratio of IC50 for Escherichia coli DNA gyrase gyrA A67S mutant to IC50 for Escherichia coli wild-type DNA gyrase
DNA gyrase subunit A [7] = target: DNA gyrase subunit A (Escherichia coli K-12, UniProt P0AES4, G81C); assay: Inhibition of DNA supercoiling activity of Escherichia coli DNA gyrase gyrA G81C mutant
DNA gyrase subunit A [8] = target: DNA gyrase subunit A (Escherichia coli K-12, UniProt P0AES4, A67S); assay: Inhibition of DNA supercoiling activity of Escherichia coli DNA gyrase gyrA A67S mutant
Escherichia coli [9] = assay: Selectivity ratio of IC50 for Escherichia coli DNA gyrase gyrA S83W mutant to IC50 for Escherichia coli wild-type DNA gyrase
Escherichia coli [10] = assay: Selectivity ratio of IC50 for Escherichia coli DNA gyrase gyrA G81C mutant to IC50 for Escherichia coli wild-type DNA gyrase
DNA gyrase = DNA gyrase (Staphylococcus aureus, UniProt P0A0K8+P20831); assay: Inhibition of DNA supercoiling activity of Staphylococcus aureus DNA gyrase; format: protein-complex assay
DNA gyrase subunit A [11] = target: DNA gyrase subunit A (Escherichia coli K-12, UniProt P0AES4, S83W); assay: Inhibition of DNA supercoiling activity of Escherichia coli DNA gyrase gyrA S83W mutant
Escherichia coli [12] = assay: Ratio of CC3 for Escherichia coli DNA gyrase gyrA S83W mutant to CC3 for Escherichia coli wild-type DNA gyrase
Escherichia coli [13] = assay: Ratio of CC3 for Escherichia coli DNA gyrase gyrA A67S mutant to CC3 for Escherichia coli wild-type DNA gyrase
Escherichia coli [14] = assay: Antimicrobial activity against Escherichia coli; format: functional

Row | SMILES | IC50 [1] [nM] | IC50 [2] [nM] | IC50 [3] [nM] | Ratio IC50 (Staphylococcus aureus) | Ratio IC50 (Escherichia coli [4]) | Ratio (Escherichia coli [5]) | Ratio IC50 (Escherichia coli [6]) | IC50 (DNA gyrase subunit A [7]) [nM] | IC50 (DNA gyrase subunit A [8]) [nM] | Ratio IC50 (Escherichia coli [9]) | Ratio IC50 (Escherichia coli [10]) | IC50 (DNA gyrase) [nM] | IC50 (DNA gyrase subunit A [11]) [nM] | Ratio (Escherichia coli [12]) | Ratio (Escherichia coli [13]) | MIC (Escherichia coli [14]) [µg/mL]
1 | O=C(O)c1cn(C2CC2)c2cc(N3CCNCC3)c(F)cc2c1=O [CIPROFLOXACIN] | 15900 | 8800 | 450 | – | – | – | – | – | – | – | – | – | – | – | – | –
2 | CC[C@@H]1CCN(c2c(F)cc3c(=O)n(N)c(=O)n(C4CC4)c3c2C)C1 | 6000 | 880 | 950 | 1.8 | 6.3 | 3.1 | 1.3 | 1700 | 1200 | 4 | 1.8 | 1600 | 3800 | 5.6 | 2.5 | –
3 | CC[C@@H]1CCN(c2c(F)cn3c(=O)n(N)c(=O)c(C4CC4)c3c2OC)C1 | 163000 | 48000 | 11000 | 1.3 | 14.8 | 2.3 | 1.7 | 31000 | 19000 | 6.1 | 2.8 | 36500 | 67000 | 3.4 | 1.5 | –
4 | CC[C@@H]1CCN(c2c(F)cc3c(=O)c(C(=O)O)cn(C4CC4)c3c2OC)C1 | 1700 | 500 | 160 | 2.2 | 10.6 | 13 | 0.75 | 1200 | 120 | 8.8 | 7.5 | 1100 | 1400 | 6.5 | 1.5 | 0.004 (≈ 0.0107 µM)
5 | CC[C@@H]1CCN(c2c(F)cc3c(=O)n(N)c(=O)n(C4CC4)c3c2OC)C1 | 16000 | 5500 | 2800 | 2.4 | 5.7 | 2.3 | 0.86 | 4300 | 2400 | 2.1 | 1.5 | 2300 | 5900 | 2.1 | 1.7 | 2.5 (≈ 6.9 µM)
